Common to all, as to type: in vivo
In data set [1] the test system is Beet Armyworm (Spodoptera exigua, LAPHEG). The experiment in a line: Bioassays on Beet Armyworm (BAW), 128-well diet tray assay. The following applies: Spodoptera exigua. The method in brief:
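Diet-overlay assay: 50 μg/cm^2 compound applied in 90:10 acetone-water to artificial diet, allowed to dry, then infested with 1–5 L2 larvae/well; 8 wells/compound; covered, vented; 25° C., 14:10 L:D, 5–7 d; % mortality per well, averaged.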

Data set [2] deals with Cabbage Looper (Trichoplusia ni, TRIPNI). The experiment in a line: Bioassays on Cabbage Looper (CL), 128-well diet tray assay. The following applies: Trichoplusia ni. The procedure, abridged: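 Diet tray, 2nd instar, 1–5 larvae/well; 50 μg/cm^2 compound surface-applied (acetone:water 90:10), dried; 8 wells/treatment; 25° C, 14:10 L:D, 5–7 d; % mortality, mean of 8 wells.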

Data set [3] has as its system Yellow Fever Mosquito (Aedes aegypti, AEDSAE). The note with it: for YFM rating: Table ABC / ABC-DP rating. The method in brief: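 Compounds from 4000 ppm DMSO stocks were diluted in 90:10 water/acetone and dispensed into wells, then infested with about 1-day-old larvae in liver-powder water. Covered plates were held at room temperature for 3 days and each well was scored for mortality against a rating scale; six replicate plates per compound.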

[4] abbreviates: Beet Armyworm, rating class, read-out: BAW.
Setting [5] is: Cabbage Looper, rating class, read-out: CL.
[6] abbreviates: Yellow Fever Mosquito, rating class.
The mark [7] stands for this setting: Table ABC: Biological Results, species BAW, read-out: BAW.
Where [8] appears, read: Table ABC: Biological Results, species CL, read-out: CL.
The mark [9] stands for this setting: Table ABC: Biological Results, species YFM.
[10] abbreviates: Beet Armyworm, Table ABC / ABC-DP rating, read-out: BAW rating.
The mark [11] stands for this setting: Cabbage Looper, Table ABC / ABC-DP rating, read-out: CL rating.

The structures appear in SMILES notation. Read-outs that look alike come from different tables or passages of the source.

Regarding `O=C(Nc1cc(NC(=O)C(F)(F)F)c(F)cc1F)c1cc(NC(=O)[C@H]2[C@H](c3ccc(Cl)c(Cl)c3)C2(Cl)Cl)ccc1F` [F1510, 5-((1R,3R)-2,2-Dichloro-3-(3,4-dichlorophenyl)cyclopropane-1-carboxamido)-N-(2,4-difluoro-5-(2,2,2-trifluoroacetamido)phenyl)-2-fluorobenzamide], the pest or weed control at 50 µg/cm2 in data set [1] (setting [4]) and in data set [2] (setting [5]) was 50 to 100% throughout. Also, the YFM entry in data set [3] (setting [6]) was “A (80–100)”.

In the case of `O=C(Nc1ccc(F)c(NC(=O)C(C(F)(F)F)C(F)(F)F)c1F)c1cc(NC(=O)[C@H]2[C@H](c3ccc(Cl)c(Cl)c3)C2(Cl)Cl)ccc1Cl` [F1607, 2-Chloro-5-((1R,3R)-2,2-dichloro-3-(3,4-dichlorophenyl)cyclopropane-1-carboxamido)-N-(2,4-difluoro-3-(3,3,3-trifluoro-2-(trifluoromethyl)propanamido)phenyl)benzamide], the pest or weed control at 50 µg/cm2 in data set [1] (setting [4]) and in data set [2] (setting [5]) was 50 to 100% in each case. In addition, the YFM result in data set [3] (setting [6]) is given as “A (80–100)”.

As to `Nc1c(F)ccc(NC(=O)c2cc(NC(=O)[C@H]3[C@H](c4cc(Cl)c(Cl)c(C(F)(F)F)c4)C3(Cl)Cl)ccc2Cl)c1F` (relative stereo) [F1149, trans-N-(3-Amino-2,4-difluorophenyl)-2-chloro-5-(2,2-dichloro-3-(3,4-dichloro-5-(trifluoromethyl)phenyl)cyclopropane-1-carboxamido)benzamide], the pest or weed control at 50 µg/cm2 in data set [1] (setting [7]) and in data set [2] (setting [8]) was 50 to 100% in each case. For the same compound, the YFM entry in data set [3] (setting [9]) is listed as “A (80–100)”.

Turning to `C=CCC(=O)Nc1c(F)ccc(NC(=O)c2cc(NC(=O)[C@H]3[C@H](c4cccc(C(F)(F)F)c4)C3(Cl)Cl)ccc2Cl)c1F` [F1878, N-(3-(But-3-enamido)-2,4-difluorophenyl)-2-chloro-5-((1R,3R)-2,2-dichloro-3-(3-(trifluoromethyl)phenyl)cyclopropane-1-carboxamido)benzamide], the pest or weed control at 50 µg/cm2 in data set [1] (setting [10]) and in data set [2] (setting [11]) was 50 to 100% throughout. The YFM rating result in data set [3] (Yellow Fever Mosquito) is “A (80–100)”.

On to `CN(NC(=O)c1cc(NC(=O)[C@H]2[C@H](c3cc(Cl)cc(Cl)c3)C2(Cl)Cl)ccc1Cl)c1cc(C(F)(F)F)ccn1` (relative stereo) [F2507, trans-2,2-Dichloro-N-(4-chloro-3-(2-methyl-2-(4-(trifluoromethyl)pyridin-2-yl)hydrazine-1-carbonyl)phenyl)-3-(3,5-dichlorophenyl)cyclopropane-1-carboxamide], for which the pest or weed control at 50 µg/cm2 in data set [1] (setting [10]) and in data set [2] (setting [11]) was 50 to 100% throughout. Moreover, the YFM rating result in data set [3] (Yellow Fever Mosquito) is “A (80–100)”.

Regarding `O=C(Nc1ccc(F)c(NC(=O)C(F)F)c1F)c1cccc(NC(=O)[C@H]2[C@H](c3ccc(Cl)c(Cl)c3)C2(Cl)Cl)c1` [F1447, 3-((1R,3R)-2,2-Dichloro-3-(3,4-dichlorophenyl)cyclopropane-1-carboxamido)-N-(3-(2,2-difluoroacetamido)-2,4-difluorophenyl)benzamide], the pest or weed control at 50 µg/cm2 in data set [1] (setting [4]) and in data set [2] (setting [5]) was 50 to 100% in each case. Moreover, in data set [3] (setting [6]), the YFM result is “A (80–100)”.

Take `O=C(Nc1c(F)cc(F)cc1Br)c1cc(NC(=O)[C@H]2[C@H](c3cc(Cl)cc(Cl)c3)C2(Cl)Cl)ccc1Cl` (relative stereo) [F1309, trans-N-(2-Bromo-4,6-difluorophenyl)-2-chloro-5-(2,2-dichloro-3-(3,5-dichlorophenyl)cyclopropane-1-carboxamido)benzamide]: the pest or weed control at 50 µg/cm2 in data set [1] (setting [7]) and in data set [2] (setting [8]) was 50 to 100% in each case. Moreover, the YFM entry in data set [3] (setting [9]) was “A (80–100)”.

For `O=C(NNc1cc(F)ccc1F)c1cc(NC(=O)[C@H]2[C@H](c3cc(Cl)cc(Cl)c3)C2(Cl)Cl)ccc1Cl` (relative stereo) [F2558, trans-2,2-Dichloro-N-(4-chloro-3-(2-(2,5-difluorophenyl)hydrazine-1-carbonyl)phenyl)-3-(3,5-dichlorophenyl)cyclopropane-1-carboxamide], the pest or weed control at 50 µg/cm2 in data set [1] (setting [10]) and in data set [2] (setting [11]) was 50 to 100% throughout. The YFM rating entry in data set [3] (Yellow Fever Mosquito) is recorded as “A (80–100)”.

For `O=C(Nc1ccc(F)c(NC(=O)C(F)F)c1F)c1cc(NC(=O)[C@H]2[C@H](c3cc(Cl)cc(Br)c3)C2(Cl)Cl)ccc1Cl` (relative stereo) [F1618, trans-5-(3-(3-Bromo-5-chlorophenyl)-2,2-dichlorocyclopropane-1-carboxamido)-2-chloro-N-(3-(2,2-difluoroacetamido)-2,4-difluorophenyl)benzamide], the pest or weed control at 50 µg/cm2 in data set [1] (setting [4]) and in data set [2] (setting [5]) was 50 to 100% throughout. Moreover, the YFM result in data set [3] (setting [6]) is recorded as “A (80–100)”.

As to `CC(=O)NCCCCCNC(=O)c1cc(NC(=O)[C@H]2[C@H](c3cc(Cl)cc(Cl)c3)C2(Cl)Cl)ccc1Cl` (relative stereo) [F2069, trans-N-(5-Acetamidopentyl)-2-chloro-5-(2,2-dichloro-3-(3,5-dichlorophenyl)cyclopropane-1-carboxamido)benzamide], the pest or weed control at 50 µg/cm2 in data set [1] (setting [10]) and in data set [2] (setting [11]) was 50 to 100% each time. For the same compound, the YFM rating result in data set [3] (Yellow Fever Mosquito) is listed as “A (80–100)”.

Consider `Cc1cc(NC(=O)[C@H]2[C@H](c3ccc(F)c(Cl)c3)C2(Cl)Cl)cc(C(=O)Nc2ccc(F)cc2)c1F` (relative stereo) [F1136, trans-5-(2,2-Dichloro-3-(3-chloro-4-fluorophenyl)cyclopropane-1-carboxamido)-2-fluoro-N-(4-fluorophenyl)-3-methylbenzamide], for which the pest or weed control at 50 µg/cm2 in data set [1] (setting [7]) and in data set [2] (setting [8]) was 50 to 100% in each case. Further, the YFM result in data set [3] (setting [9]) is on record as “A (80–100)”.

With `CC(=O)Nc1ccc(NC(=O)c2cc(NC(=O)[C@H]3[C@H](c4ccc(F)c(Cl)c4)C3(Cl)Cl)cc(C)c2F)cc1` (relative stereo) [F1139, trans-N-(4-Acetamidophenyl)-5-(2,2-dichloro-3-(3-chloro-4-fluorophenyl)-cyclopropane-1-carboxamido)-2-fluoro-3-methylbenzamide], the pest or weed control at 50 µg/cm2 in data set [1] (setting [7]) and in data set [2] (setting [8]) was 50 to 100% in each case. The YFM entry in data set [3] (setting [9]) is “A (80–100)”.

Consider `Cc1cc(F)ccc1NNC(=O)c1cc(NC(=O)[C@H]2[C@H](c3cc(Cl)cc(Cl)c3)C2(Cl)Cl)ccc1Cl` (relative stereo) [F2562, trans-2,2-Dichloro-N-(4-chloro-3-(2-(4-fluoro-2-methylphenyl)hydrazine-1-carbonyl)phenyl)-3-(3,5-dichlorophenyl)cyclopropane-1-carboxamide], for which the mortality at 50 µg/cm2 in data set [1] (168 h, second instar larvae, 50 μg/cm^2 of test molecule on artificial diet, 25° C., five to seven days, average of eight wells, read-out: BAW % Control (or Mortality) rating) was 50 to 100%; in data set [2] (168 h, second instar larvae, 50 μg/cm^2 of test molecule on artificial diet, 25° C., five to seven days, average of eight wells, read-out: CL % Control (or Mortality) rating), 50 to 100%. Also, the pest or weed control at 50 µg/cm2 in data set [1] (setting [10]) and in data set [2] (setting [11]) was 50 to 100% each time. The YFM rating result in data set [3] (Yellow Fever Mosquito) is on record as “A (80–100)”. For the same compound, the “YFM % Control (or Mortality) rating” value in data set [3] (about 1 day-old larvae, 4000 ppm master solution diluted with 90:10 water/acetone, 15 μL per well plus 220 μL larval mixture, 3 days, mortality) is recorded as “A (80–100)”.

Take `CC1(C(=O)Nc2c(F)ccc(NC(=O)c3cc(NC(=O)[C@H]4[C@H](c5ccc(F)c(C(F)(F)F)c5)C4(Cl)Cl)ccc3Cl)c2F)CCCO1` (stereo partly drawn) [F1809, N-(3-(2-Chloro-5-((1R,3R)-2,2-dichloro-3-(4-fluoro-3-(trifluoromethyl)phenyl)cyclopropane-1-carboxamido)benzamido)-2,6-difluorophenyl)-2-methyltetrahydrofuran-2-carboxamide]: the pest or weed control at 50 µg/cm2 in data set [1] (setting [10]) and in data set [2] (setting [11]) was 50 to 100% throughout. Besides, the YFM rating result in data set [3] (Yellow Fever Mosquito) was “A (80–100)”.

For the compound `O=C(Nc1ccc(F)cc1)c1cc(NC(=O)[C@H]2[C@H](c3ccc(F)c(Cl)c3)C2(Cl)Cl)cc(F)c1Cl` (relative stereo) [F1152, trans-2-Chloro-5-(2,2-dichloro-3-(3-chloro-4-fluorophenyl)cyclopropane-1-carboxamido)-3-fluoro-N-(4-fluorophenyl)benzamide], the pest or weed control at 50 µg/cm2 in data set [1] (setting [7]) and in data set [2] (setting [8]) was 50 to 100% in each case. Also, the YFM entry in data set [3] (setting [9]) is reported as “A (80–100)”.

As to `O=C(Nc1ccc(F)c(NC(=O)C(F)F)c1F)c1cc(NC(=O)[C@H]2[C@H](c3cccc(Br)c3)C2(Cl)Cl)ccc1Cl` (relative stereo) [F1600, trans-5-(3-(3-Bromophenyl)-2,2-dichlorocyclopropane-1-carboxamido)-2-chloro-N-(3-(2,2-difluoroacetamido)-2,4-difluorophenyl)benzamide], the pest or weed control at 50 µg/cm2 in data set [1] (setting [4]) and in data set [2] (setting [5]) was 50 to 100% in each case. For the same compound, the YFM result in data set [3] (setting [6]) is reported as “A (80–100)”.

Broadly, the mortality is the share of the test organisms that died.

Source of the values: patent US20250228239A1, “MOLECULES HAVING PESTICIDAL UTILITY, AND INTERMEDIATES, COMPOSITIONS, AND PROCESSES, RELATED THERETO” (priority 2024, published 2025).
